The test system of assay [1] is MOLM-14 F691L cells, FLT3 ITD and FLT3 F691L. Kind of assay: Cell proliferation assay (CellTiter-Glo), MOLM-14 F691L. Conditions: Homo sapiens, 72 h, 3d-Growth, GMean. It counts as cell-based. Put shortly:
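MOLM-14 AML cells (endogenous FLT3 ITD, AC220-selected D835Y or F691L variants) or murine Ba/F3 expressing full-length FLT3 ITD/D835Y, without IL-3 for FLT3 dependence, 1×10^4 cells/well. Eight-point 1:3 series from 1 μM final, 0.2% DMSO, 3 days at 37 °C. CellTiter-Glo luminescence (ATP) gave IC50.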
Background: Cellular ATP, detected with luciferase, serves as a proxy for viable cell number.

Another assay addresses T1, FLT3-D835Y (Homo sapiens, UniProt P36888, D835Y).
T1 construct: purchased Invitrogen PV3967
T1 sequence (P36888 27-993 D835Y): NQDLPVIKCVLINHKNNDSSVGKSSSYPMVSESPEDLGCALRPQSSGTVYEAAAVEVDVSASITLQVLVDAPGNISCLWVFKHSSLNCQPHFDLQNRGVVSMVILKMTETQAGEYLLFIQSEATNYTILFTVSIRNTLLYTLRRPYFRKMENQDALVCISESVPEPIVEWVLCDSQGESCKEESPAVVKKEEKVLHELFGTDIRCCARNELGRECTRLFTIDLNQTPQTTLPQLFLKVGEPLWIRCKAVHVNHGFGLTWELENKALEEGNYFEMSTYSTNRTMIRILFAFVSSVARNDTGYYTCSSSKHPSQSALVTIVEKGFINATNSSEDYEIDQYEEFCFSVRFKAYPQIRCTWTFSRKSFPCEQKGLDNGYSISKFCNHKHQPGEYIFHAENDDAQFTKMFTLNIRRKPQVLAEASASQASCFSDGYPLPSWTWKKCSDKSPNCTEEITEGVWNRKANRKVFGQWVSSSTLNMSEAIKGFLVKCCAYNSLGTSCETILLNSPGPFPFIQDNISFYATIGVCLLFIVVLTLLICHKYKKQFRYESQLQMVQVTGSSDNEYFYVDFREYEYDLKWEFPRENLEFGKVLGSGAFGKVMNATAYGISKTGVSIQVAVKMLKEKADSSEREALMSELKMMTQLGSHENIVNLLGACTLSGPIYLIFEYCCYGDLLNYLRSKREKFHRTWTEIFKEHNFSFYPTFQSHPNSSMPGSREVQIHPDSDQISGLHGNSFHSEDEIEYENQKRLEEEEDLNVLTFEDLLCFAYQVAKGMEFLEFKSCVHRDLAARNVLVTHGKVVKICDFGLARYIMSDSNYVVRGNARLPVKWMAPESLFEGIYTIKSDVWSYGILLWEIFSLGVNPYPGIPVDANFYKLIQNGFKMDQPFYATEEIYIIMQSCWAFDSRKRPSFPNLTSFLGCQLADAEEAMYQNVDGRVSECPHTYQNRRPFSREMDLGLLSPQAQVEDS
Kind of assay: AlphaScreen kinase assay with recombinant enzyme, FLT3-D835Y. It counts as biochemical. The conditions noted are these: 8pt, GMean. The method, boiled down: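 Compounds in DMSO added to enzyme plus biotin-poly(Glu4-Tyr) (30 nM) in assay buffer, then ATP added. Streptavidin donor beads added (20 min, RT), then PY20 acceptor beads (60 min, RT), both at 10 μg/mL final in stop/detection buffer. IC50 conditions: 10 μM FLT3-D835Y/ITD, 100 μM c-KIT.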

For `CC(C)(C#N)NC(=O)c1cccc(-c2cnc3[nH]c(-c4cnn(C(F)F)c4)cc3c2)n1` [Compound P-0164, N-(2-cyanopropan-2-yl)-6-(2-(1-(difluoromethyl)-1H-pyrazol-4-yl)-1H-pyrrolo[2,3-b]pyridin-5-yl)picolinamide], the IC50 (in assay [1]; at FLT3-D835Y) was 0.0001 to 10 µM in each case.
Take `CC(C)(C#N)NC(=O)c1cccc(-c2cnc3[nH]c(-c4cnn(C5CC5)c4)cc3c2)n1` [Compound P-0165, N-(1-cyano-1-methyl-ethyl)-6-[2-(1-cyclopropylpyrazol-4-yl)-1H-pyrrolo[2,3-b]pyridin-5-yl]pyridine-2-carboxamide]: the IC50 (in assay [1]; at FLT3-D835Y) was 0.0001 to 10 µM in each case.
Take `CC(C)(C#N)NC(=O)c1cccc(-c2cnc3[nH]c(-c4cnc(C5CC5)nc4)cc3c2)n1` [Compound P-0166, N-(1-cyano-1-methyl-ethyl)-6-[2-(2-cyclopropylpyrimidin-5-yl)-1H-pyrrolo[2,3-b]pyridin-5-yl]pyridine-2-carboxamide]: the IC50 (in assay [1]; at FLT3-D835Y) was 0.0001 to 10 µM each time.
As for `CC(C)(C#N)NC(=O)c1cccc(-c2cnc3[nH]c(-c4ccc(C5CC5)nc4)cc3c2)n1` [Compound P-0168, N-(1-cyano-1-methyl-ethyl)-6-[2-(6-cyclopropyl-3-pyridyl)-1H-pyrrolo[2,3-b]pyridin-5-yl]pyridine-2-carboxamide], the 50% inhibitory concentration (IC50) (in assay [1]; at FLT3-D835Y) was 0.0001 to 10 µM each time.
Consider `Cc1nc(C(C)C)sc1-c1cc2cc(-c3cccc(C(=O)NC(C)(C)C#N)n3)cnc2[nH]1` [Compound P-0169, N-(1-cyano-1-methyl-ethyl)-6-[2-(2-isopropyl-4-methyl-thiazol-5-yl)-1H-pyrrolo[2,3-b]pyridin-5-yl]pyridine-2-carboxamide], for which the IC50 (in assay [1]; at FLT3-D835Y) was 0.0001 to 10 µM each time.
Consider `CC(C)(C#N)NC(=O)c1cccc(-c2cnc3[nH]c(-c4cnn(CCC#N)c4)cc3c2)n1` [Compound P-0170, 6-[2-[1-(2-cyanoethyl)pyrazol-4-yl]-1H-pyrrolo[2,3-b]pyridin-5-yl]-N-(1-cyano-1-methyl-ethyl)pyridine-2-carboxamide], for which the IC50 (in assay [1]; on FLT3-D835Y) was 0.0001 to 10 µM throughout.
On to `CC(C)(C#N)NC(=O)c1cccc(-c2cnc3[nH]c(-c4cnn(Cc5ccccc5)c4)cc3c2)n1` [Compound P-0171, 6-[2-(1-benzylpyrazol-4-yl)-1H-pyrrolo[2,3-b]pyridin-5-yl]-N-(1-cyano-1-methyl-ethyl)pyridine-2-carboxamide], for which the concentration for half-maximal inhibition (IC50) (in assay [1]; on FLT3-D835Y) was 0.0001 to 10 µM each time.
As to `COCCn1cc(-c2cc3cc(-c4cccc(C(=O)NC(C)(C)C#N)n4)cnc3[nH]2)cn1` [Compound P-0172, N-(1-cyano-1-methyl-ethyl)-6-[2-[1-(2-methoxyethyl)pyrazol-4-yl]-1H-pyrrolo[2,3-b]pyridin-5-yl]pyridine-2-carboxamide], the half-maximal inhibitory concentration (IC50) (in assay [1]; on FLT3-D835Y) was 0.0001 to 10 µM each time.
For `CC(C)(C#N)NC(=O)c1cccc(-c2cnc3[nH]c(-c4cnn(C5CCOC5)c4)cc3c2)n1` (stereo not drawn) [Compound P-0173, N-(1-cyano-1-methyl-ethyl)-6-[2-(1-tetrahydrofuran-3-ylpyrazol-4-yl)-1H-pyrrolo[2,3-b]pyridin-5-yl]pyridine-2-carboxamide], the half-inhibitory concentration (IC50) (in assay [1]; at FLT3-D835Y) was 0.0001 to 10 µM throughout.
As for `CC(C)(C#N)NC(=O)c1cccc(-c2cnc3[nH]c(-c4cnn(CCN5CCOCC5)c4)cc3c2)n1` [Compound P-0174, N-(1-cyano-1-methyl-ethyl)-6-[2-[1-(2-morpholinoethyl)pyrazol-4-yl]-1H-pyrrolo[2,3-b]pyridin-5-yl]pyridine-2-carboxamide], the IC50 (in assay [1]; on FLT3-D835Y) was 0.0001 to 10 µM in each case.
`CC(C)(C#N)NC(=O)c1cccc(-c2cnc3[nH]c(C#Cc4ccccc4)cc3c2)n1` [Compound P-0176, N-(1-cyano-1-methyl-ethyl)-6-[2-(2-phenylethynyl)-1H-pyrrolo[2,3-b]pyridin-5-yl]pyridine-2-carboxamide]: the IC50 (in assay [1]; on FLT3-D835Y) was 0.0001 to 10 µM in each case.
For the compound `Cc1nn(C(C)C)cc1-c1cc2cc(-c3cccc(C(=O)NC(C)(C)C#N)n3)cnc2[nH]1` [Compound P-0178, N-(1-cyano-1-methyl-ethyl)-6-[2-(1-isopropyl-3-methyl-pyrazol-4-yl)-1H-pyrrolo[2,3-b]pyridin-5-yl]pyridine-2-carboxamide], the IC50 (in assay [1]; on FLT3-D835Y) was 0.0001 to 10 µM each time.
With `CC(C)(C#N)NC(=O)c1cccc(-c2cnc3[nH]c(C4=CCSCC4)cc3c2)n1` [Compound P-0180, N-(1-cyano-1-methyl-ethyl)-6-[2-(3,6-dihydro-2H-thiopyran-4-yl)-1H-pyrrolo[2,3-b]pyridin-5-yl]pyridine-2-carboxamide], the IC50 (in assay [1]; at FLT3-D835Y) was 0.0001 to 10 µM throughout.
Turning to `CC(C)(C#N)NC(=O)c1cccc(-c2cnc3[nH]c(C4=CCN(C(=O)C5CC5)CC4)cc3c2)n1` [Compound P-0181, N-(1-cyano-1-methyl-ethyl)-6-[2-[1-(cyclopropanecarbonyl)-3,6-dihydro-2H-pyridin-4-yl]-1H-pyrrolo[2,3-b]pyridin-5-yl]pyridine-2-carboxamide], the IC50 (in assay [1]; at FLT3-D835Y) was 0.0001 to 10 µM in each case.
Consider `CC(C)(C#N)NC(=O)c1cccc(-c2cnc3[nH]c(C4=CCNCC4)cc3c2)n1` [Compound P-0182, N-(1-cyano-1-methyl-ethyl)-6-[2-(1,2,3,6-tetrahydropyridin-4-yl)-1H-pyrrolo[2,3-b]pyridin-5-yl]pyridine-2-carboxamide], for which the IC50 (in assay [1]; at FLT3-D835Y) was 0.0001 to 10 µM in each case.
Take `CC(C)(C#N)NC(=O)c1cccc(-c2cnc3[nH]c(-c4cn[nH]c4)cc3c2)n1` [Compound P-0183, N-(1-cyano-1-methyl-ethyl)-6-[2-(1H-pyrazol-4-yl)-1H-pyrrolo[2,3-b]pyridin-5-yl]pyridine-2-carboxamide]: the 50% inhibitory concentration (IC50) (in assay [1]; at FLT3-D835Y) was 0.0001 to 10 µM throughout.
As for `CC(C)(C#N)NC(=O)c1cccc(-c2cnc3[nH]c(-c4cnn(C5CCNCC5)c4)cc3c2)n1` [Compound P-0187, N-(1-cyano-1-methyl-ethyl)-6-[2-[1-(4-piperidyl)pyrazol-4-yl]-1H-pyrrolo[2,3-b]pyridin-5-yl]pyridine-2-carboxamide], the IC50 (in assay [1]; on FLT3-D835Y) was 0.0001 to 10 µM throughout.
For the compound `CC(C)(C#N)NC(=O)c1cccc(-c2cnc3[nH]c(C4=CCN(S(=O)(=O)C5CC5)CC4)cc3c2)n1` [Compound P-0188, N-(1-cyano-1-methyl-ethyl)-6-[2-(1-cyclopropylsulfonyl-3,6-dihydro-2H-pyridin-4-yl)-1H-pyrrolo[2,3-b]pyridin-5-yl]pyridine-2-carboxamide], the IC50 (in assay [1]; at FLT3-D835Y) was 0.0001 to 10 µM throughout.

By IC50 is commonly meant the midpoint of a concentration-inhibition curve.

The values are drawn from patent publication US9938273B2 (Plexxikon Inc., priority 2015, dated 2018).
